Reference: patent US20020022594A1, “Bax fragment induced tumor cell death” (priority 2000, published 2002)
Where a SMILES comes first, the peptide text is derived from it. [ ]: non-standard residue; d: D form. The star is where a group is joined. Nle = CCCC[C@H](N)C(=O)O; Cbz = O=C(OCc1ccccc1)*; CH2F = FC*

Key:
[1] = system: cell-free Bax cleavage activity (calpain-like) in whole cell extract of VP-16-treated Jurkat T cells; assay: Cell-free Bax cleavage assay with protease inhibitors; assay type: biochemical, human; details: 35S-labeled Bax, 2 hours
Method: Briefly, the ^35S-labeled Bax protein (1 μl) was incubated with 100 μg of a whole cell extract or a cytosol or mitochondrial fraction in an assay buffer (10 mM HEPES, pH 7.4, 5 mM MgCl2, 5 mM CaCl2, and 1 mM DTT), supplemented with ATP-regenerating system (0.1 mg/ml creatine kinase, 100 mM creatine phosphate, and 5 mM ATP) for 2 hours at 37° C. […] For inhibitor studies, 10 μM of calpain inhibitor-1 (LLnL), 10 μM of calpain inhibitor-2 (LLM), 20 μM of pan-caspase inhibitor Z-VAD-FMK, 20 μM of caspase-3 inhibitor Ac-DEVD-CMK, or 20 μM of the specific proteasome inhibitor castolactacystin, lactone was added in the Bax cleavage system.

[2] = system: Neo cells (Jurkat T cells transfected with vector alone); assay: VP-16 treatment of Neo (vector) Jurkat T cells; assay type: cell-based, human; details: VP-16 50 μM
Method: (§1) MCF-7, Jurkat T. Neo and Bcl-2 cells were cultured in RPMI 1640 supplemented with 10% fetal calf serum, 100 units/ml of penicillin and 100 μg/ml of streptomycin at 37° C. in a humidified atmosphere consisting of 5% CO2 and 95% air. […] For the experiment using a specific calpain inhibitor, Jurkat T cells were pretreated for 1 hour with calpeptin at 10 μM, followed by a co-incubation with 50 μM of VP-16, as indicated in figure legends.
(§2) The resulting supernatant was then centrifuged at 14,000×g for 30 minutes, followed by collection of both the supernatant and pellet fractions. […] The supernatant was further centrifuged at 600,000×g for 30 minutes and the resulting supernatant was collected as the cytosol fraction. To prepare a whole cell extract, cells were lysed in the lysis buffer, and the lysate was centrifuged at 14,000×g for 30 minutes.
Briefly, the ^35S-labeled Bax protein (1 μl) was incubated with 100 μg of a whole cell extract or a cytosol or mitochondrial fraction in an assay buffer (10 mM HEPES, pH 7.4, 5 mM MgCl2, 5 mM CaCl2, and 1 mM DTT), supplemented with ATP-regenerating system (0.1 mg/ml creatine kinase, 100 mM creatine phosphate, and 5 mM ATP) for 2 hours at 37° C. […]

[3] = system: Jurkat T cells; details: VP-16 50 μM
[4] = system: Bcl-2 cells (Jurkat T cells overexpressing Bcl-2); assay: VP-16 treatment of Bcl-2 overexpressing Jurkat T cells; details: VP-16 50 μM
[5] = system: Jurkat T cells; assay: Apoptotic execution in drug-treated Jurkat T cells (caspase-3 processing, PARP cleavage, DNA fragmentation, TUNEL)
[6] = system: Jurkat T cells; assay: Cell-free Bax cleavage activity in whole cell lysates of drug-treated Jurkat T cells; details: VP-16 50 μM; absent in untreated cells
[7] = system: Jurkat T cells; assay: Cytochrome c release from mitochondria to cytosol in drug-treated Jurkat T cells; assay type: cell-based, human
Method: as §2
(§3) The primary antibodies used were: monoclonal B9anti-Bax antibody (Santa Cruz Biotechnology, Santa Cruz, Calif.) at 1:500, monoclonal 6A7 anti-Bax antibody (Pharmingen, San Diego, Calif.) at 1:500, monoclonal anti-Bcl-2 antibody (Dako, Glostrup, Denmark) at 1:500, monoclonal anti-caspase-3 antibody (Onocogene, Cambridge, Mass.) at 1:200, monoclonal anti-cytochrome C antibody (Pharmingen) at 1:500, polyclonal anti-PARP antibody (Boehringer Manheim, Indianapolis, Ind.) at 1:3000, monoclonal anti-cytochrome oxidase unit 11 (COX) antibody (Molecular Probes, Eugene, Oreg.) at 1:200, and monoclonal anti-calpain 30 kDa subunit antibody (Chemicon, Temecula, Calif.) at 1:500.

[8] = system: Jurkat T cells; assay: Calpeptin pre- and co-treatment of VP-16-treated Jurkat T cells; assay type: cell-based, human
Method: as §1, §2, §3

[9] = target: T1, Bcl-2 (Homo sapiens, UniProt P10415); assay: Immunoprecipitation-Western blot assay of interaction with Bcl-2 in mitochondrial fraction; assay type: binding; details: mitochondrial fraction of Jurkat T cells untreated or treated with VP-16 for 12 hours
T1 construct: the mitochondria fraction (500 μg of protein) from VP-16-treated or untreated Jurkat T cells; endogenous in cells; host or cells: Jurkat T cells, untreated or treated with VP-16 for 12 hours; mitochondrial membrane-enriched fraction
Method: Immunoprecipitation assay was performed as described previously (Fattman et al., 1997). Briefly, the mitochondria fraction (500 μg of protein) from VP-16-treated or untreated Jurkat T cells was incubated with a 5 μg of a monoclonal anti-human Bcl-2 antibody overnight at 4° C. The protein-antibody complex was then precipitated by incubating with 2 μl of Protein G plus Protein A agarose (Oncogene) for 1 hour at 4° C. and centrifuging at 2000×g at 4° C. for 1 hour. Both the precipitate and supernatant fractions were then analyzed by immunoblotting using the monoclonal B9 anti-human Bax antibody.

[10] = system: human breast cancer MCF-7; assay: Transient transfection of Bax/p18 or Bax/p21 cDNA in MCF-7 cells; assay type: cell-based
Method: as §2
(§4) Bax/p18 cDNA was amplified by PCR with human Bax-α-cDNA as template using primer 5′-[…] (forward) and 5′-[…] (reverse) (Wood et al., 1998) and cloned into pcDNA3.0 between Hind III and Xho I restriction enzyme sites. Bax/p18 cDNA was verified by sequencing. MCF-7, Jurkat T. Neo and BcI-2 cells were transfected with pcDNA3.0 vector alone or pcDNA3.0 vector containing Bax/p18 or Bax/p21 cDNA using GenePORTER Transfection Reagent (Gene Therapy Systems, San Diego, Calif.) according to the manufacture's instructions. Briefly, 3 μg of plasmid DNA in 500 μl of RPMI 1640 medium was incubated for 30 minutes at room temperature with 25 μl of GenePORTER reagent in 500 μl of RPMI 1640 medium. The resultant GenePORTER-plasmid DNA mixture (1 ml) was then added into cells 2×10^6 cells in a well of a 6-well plate, followed by 5 hours incubation at 37° C. in a humidified atmosphere consisting of 5% CO2. […]

[11] = system: Jurkat T cells; assay: Transient transfection of Bax/p18 or Bax/p21 cDNA in Jurkat T cells; assay type: cell-based, human; details: 48 hours after cDNA transfection
Method: as §2
as §4, with “CO2. After that, 1 ml of RPMI 1640 medium containing 20% fetal calf serum was added and the cells were further incubated for additional 43 hours before harvest.” for “CO2.”

[12] = calpeptin 10 μM pre- and co-treatment, VP-16 50 μM

T1 sequence (P10415 whole entry): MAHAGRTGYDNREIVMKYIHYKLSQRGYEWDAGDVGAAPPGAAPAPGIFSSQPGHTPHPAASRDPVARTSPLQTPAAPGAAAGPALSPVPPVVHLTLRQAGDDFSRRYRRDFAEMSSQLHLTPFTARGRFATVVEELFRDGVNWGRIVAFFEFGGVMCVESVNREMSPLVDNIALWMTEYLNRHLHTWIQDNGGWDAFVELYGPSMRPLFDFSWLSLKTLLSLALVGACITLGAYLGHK

With `CC(=O)N[C@@H](CC(=O)O)C(=O)N[C@@H](CCC(=O)O)C(=O)N[C@H](C(=O)N[C@@H](CC(=O)O)C(=O)CCl)C(C)C` [Ac-DEVD-CMK] the “inhibition of cell-free Bax cleavage activity” value ([1]; inhibitor 20 μM) was “partially inhibited”.
For `CSCC[C@@H](C=O)NC(=O)[C@H](CC(C)C)NC(=O)[C@H](CC(C)C)NC(C)=O` [LLM, calpain inhibitor KK] (Ac-Leu-Leu-Met-aldehyde), the “inhibition of cell-free Bax cleavage activity” value ([1]; inhibitor 10 μM) was “completely inhibited”.
With `CCCC[C@@H](C=O)NC(=O)[C@H](CC(C)C)NC(=O)[C@H](CC(C)C)NC(C)=O` [LLnL, calpain inhibitor I] (Ac-Leu-Leu-[Nle]-aldehyde) the “inhibition of cell-free Bax cleavage activity” value ([1]; inhibitor 10 μM) was “completely inhibited”.
`COc1cc([C@@H]2c3cc4c(cc3[C@@H](O[C@@H]3O[C@@H]5CO[C@@H](C)O[C@H]5[C@H](O)[C@H]3O)[C@H]3COC(=O)[C@H]23)OCO4)cc(OC)c1O` [VP-16, Etoposide] was tested, and the “earliest time of appearance of Bax/p18 and p36 bands” value [2] was 3 h, the “treatment time at which apoptosis was induced (caspase-3 processing, PARP cleavage)” value [2] was at least 6 h and the “earliest time of Bax cleavage (Bax/p18 and p36 bands, B9 antibody)” value [3] was 3 h. The “time at which autolysis of the calpain 30 kDa subunit began” value [3] was 3 h, the “delay of appearance of Bax/p18 and p36 bands versus Neo cells” value [4] was 9 h and the “delay of detection of cell-free Bax cleavage activity versus Neo cells” value [4] was 9 h. The “time after which caspase-3 processing and PARP cleavage were observed” value [4] was 24 h, the “time after which release of cytochrome c was detected” value [4] was 12 h and the “time of appearance of Bax/p18 and p36 bands” value [4] was 12 h. The “time of autolysis of calpain 30 kDa subunit (delayed from 3 hours in Neo cells)” value [4] was 12 h, the “time at which apoptotic execution phase began (caspase-3 processing/activation, PARP cleavage, DNA fragmentation)” value ([5]; VP-16 50 μM) was 6 h and the “treatment time at which cell-free Bax cleavage activity is present in cell extract” value [6] was at least 3 h. For the same molecule, the “treatment time after which cytosolic cytochrome c appeared” value ([7]; VP-16 50 μM) was 3 h.
In the case of `COC(=O)C[C@H](NC(=O)[C@H](C)NC(=O)[C@@H](NC(=O)OCc1ccccc1)C(C)C)C(=O)CF` [Z-VAD-FMK] (Cbz-Val-Ala-Asp(OMe)-CH2F), the “inhibition of cell-free Bax cleavage activity” value ([1]; inhibitor 20 μM) is reported as “partially inhibited”.
With `CCCC[C@@H](C=O)NC(=O)[C@H](CC(C)C)NC(=O)OCc1ccccc1` [calpeptin, Calpeptin] the “effect on VP-16-induced Bax cleavage” value [8, 12] was “delay”, the “effect on VP-16-induced release of cytochrome c from mitochondria to the cytosol” value [8, 12] was “delay” and the “time of VP-16-induced caspase-3 processing and PARP cleavage with calpeptin (delayed from 6 hours)” value [8, 12] was 24 h. For the same molecule, the “time of autolysis of the 30 kDa small subunit of calpain with calpeptin (delayed from 3 hours)” value [8, 12] was 24 h, the “apoptosis induction by the inhibitor itself” value ([8]; calpeptin 10 μM, 1 hour pretreatment, no VP-16) was “did not induce apoptosis” and the “inhibition of PARP cleavage at 24 hours” value ([8]; fresh calpeptin added at 18 hours after VP-16 treatment) was “complete inhibition”.
`CN[C@@H]1C[C@H]2O[C@@](C)([C@@H]1OC)n1c3ccccc3c3c4c(c5c6ccccc6n2c5c31)C(=O)NC4` [staurosporin] was tested, and the “time at which caspase-3 processing/activation, PARP cleavage and DNA fragmentation occurred” value ([5]; staurosporin 1 μM, up to 24 hours) was at least 6 h and the “treatment time after which cytosolic cytochrome c appeared” value ([7]; staurosporin 1 μM) was 3 h.
With “Bax/p18: calpain-cleaved 18 kDa Bax fragment; the cloned Bax/p18 consists of amino acids 33-192 of Bax, expressed from transfected cDNA” the “interaction with Bcl-2 (co-immunoprecipitation by anti-Bcl-2 antibody)” value [9] was “did not interact”, the “cytochrome c-associated apoptotic events” value [10] was “release of cytochrome c, cleavage of PARP and fragmentation of DNA” and the “caspase-3 processing/activation, PARP cleavage and DNA fragmentation” value [11] was “detected”. For the same molecule, the “release of cytochrome c” value [11] was “induced”.
In the case of “Bax/p21: full-length Bax protein, endogenous or expressed from transfected Bax-α cDNA”, the “interaction with Bcl-2 (co-immunoprecipitation by anti-Bcl-2 antibody)” value [9] is reported as “co-immunoprecipitated”, the “cytochrome c-associated apoptotic events” value [10] is reported as “did not induce” and the “release of cytochrome c” value [11] is reported as “not observed”.
